Results on ten compounds are retold here after patent publication US20250194594A1, “ATTRACTANT COTTON SEED BUG, OXYCARENUS Hyalinipennis, AND USES THEREOF” (The United States of America, as represented by the …, priority 2023, published 2025).

Series [1] deals with cotton seed bugs (CSBs). The experiment in a line: Pheromone function assigned from the behavioral responses and VOC profiles. It counts as in vivo, Oxycarenus hyalinipennis. Conditions: summary statement; compounds not tested singly in the bioassays.
Series [2] has as its system cotton seed bug (CSB), Oxycarenus hyalinipennis. The experiment in a line: Field test, pheromones in plastic vials in a cotton field with high CSB population. It is filed as in vivo. Conditions: counted after 1 hour, compared among treatment groups including control (no treatment). The source says:
(§1) The mean number of O. hyalinippenis in different treatment traps (captures/week) in field trials were compared by one-way analysis of variance (ANOVA) followed by Ryan-Einot-Gabriel-Welsch F test (SPSS 10.0 for Windows) following D George and P Mallery (2002, “SPSS for Windows Step by Step: A Simple Guide and Reference,” 11.0 Update. 4th Edition, Allyn & Bacon; Boston, Massachusetts, USA). All statistical comparisons were considered for significance at α=0.05.
(§2) Different pheromones or mixtures of pheromones were tested for their ability to attract CSB in the field.
Field tests were conducted by adding one or more of the identified pheromones to plastic vials and placing the vials in a cotton field with high CSB population, followed by counting the CSB caught after one (1) hour.
A field test was conducted using E2-octenal, E2-octenyl acetate, and a mixture of E2-octenal and E2-octenyl acetate. The compounds were placed in plastic vials in a cotton field with a high population of CSB. Many other bugs were also captured in the traps (numbers were not included).

The conditions of series [3]: cited from earlier work.
The conditions of series [4]: cited from earlier work. The source holds these as a separate data set.
For series [5], the system named is cotton seed bug (CSB), Oxycarenus hyalinipennis. The experiment in a line: Field test, attractants formulated in rubber septa in a cotton field with low CSB population. Conditions: cotton field where CSB population was low, vs control (no treatment), listed as 4-oxo-E2-8: ald. It is filed as in vivo.
Source text: as §1, §2
In a separate field test, a mixture of E2-octenal, 4-oxo-E2-octenal, and E2-octenyl acetate in a ratio of 1:2:7, as well as the single attractant component, 4-oxo-E2-8: ald, were tested. The compounds were formulated in rubber septa in a cotton field where the population of CSB was low. CSB formed the majority of insects caught in the traps. Trap specificity was much higher than in the test described above.

Molecules are shown by their SMILES. Entries after “also recorded” stand apart in the source; their conditions may differ.

Regarding `CCCCCCC/C=C/C=O` (single isomer, unassigned) [(E)-2-Decenal], the pheromone function entry in series [1] is listed as “performed as oviposition pheromones”.

As for `C=C/C(C)=C/C/C=C(/C)CCC=C(C)C` [(Z, E)-α-Farnesene], in series [1], the pheromone function result was “performed as alarm (repellent) pheromones”. As to `CCCCC/C=C/COC(C)=O` [(E)-2-Octenyl acetate], in series [2], the “number of CSB caught in the traps” value was “not significantly different”. Moreover, the pheromone function entry in series [1] is given as “performed as CSB attraction pheromones; also recorded: performed as oviposition pheromones”.

As to `CCC/C=C/C=O` [(E)-2-Hexenal], the pheromone function result in series [1] was “performed as CSB attraction pheromones”.

As to `CC1=CCC2CC1C2(C)C` (stereo not drawn) [α-Pinene, 2,6,6-Trimethylbicyclo[3.1.1]hept-2-ene], in series [1], the pheromone function entry was “performed as CSB attraction pheromones”. Take `CCCCC/C=C/C=O` [(E)-2-Octenal]: in series [3], the “basicity (based on its pKa)” value is “extremely weak basic (essentially neutral)”. Further, the “number of CSB caught in the traps” value in series [2] is “not significantly different”. In addition, in series [1], the pheromone function entry is on record as “performed as CSB attraction pheromones; also recorded: performed as oviposition pheromones”. Besides, the “solubility (in water)” value in series [4] was “practically insoluble”.

Regarding `CC(C)=CCC[C@]1(C)[C@H]2CC=C(C)[C@@H]1C2` [(E)-α-Bergamotene], the pheromone function result in series [1] is “performed as alarm (repellent) pheromones”. `CCCCC(=O)/C=C/C=O` [4-Oxo-(E)-2-octenal]: the “CSB trapped compared with control” value in series [5] is listed as “trapped significantly more CSB than control; also recorded: attract CSB”. `CCC/C=C/COC(C)=O` [(E)-2-Hexenyl acetate, (E)-2-hexen-1-yl acetate]: the pheromone function entry in series [1] was “performed as CSB attraction pheromones”. Same read-out and setting: the result for `CCC(=O)/C=C/C=O` [4-Oxo-(E)-2-hexenal] reads “performed as CSB attraction pheromones”.
